Patent publication US6464988B1, “Glipizide-cyclodextrin inclusion complexes and their pharmaceutical composition” (USV Limited, priority 2001, dated 2002)

Assay: In-vitro dissolution studies (% release of glipizide)
Assay type: physicochemical
Conditions: containing 10 mg of Glipizide

1-cyclohexyl -3-[[p-[2-(methylpyrazinecarboxamido)ethyl]phenyl]sulfonyl]urea [Glipizide]
% release of glipizide (0.1N Hydrochloric acid, 200 ml, 5 mins): 14-18%
% release of glipizide (0.1N Hydrochloric acid, 200 ml, 15 mins): 23-24%
% release of glipizide (0.1N Hydrochloric acid, 200 ml, 30 mins): 23-26%
% release of glipizide (0.1N Hydrochloric acid, 400 ml, 5 mins): 16-20%
% release of glipizide (0.1N Hydrochloric acid, 400 ml, 15 mins): 26-27%
% release of glipizide (0.1N Hydrochloric acid, 400 ml, 30 mins): 26-30%
% release of glipizide (0.1N Hydrochloric acid, 900 ml, 5 mins): 16-18%
% release of glipizide (0.1N Hydrochloric acid, 900 ml, 15 mins): 22-26%
% release of glipizide (0.1N Hydrochloric acid, 900 ml, 30 mins): 24-27%
% release of glipizide (Phosphate Buffer pH 6.8 USP, 200 ml, 5 mins): 23-27%
% release of glipizide (Phosphate Buffer pH 6.8 USP, 200 ml, 15 mins): 65-67%
% release of glipizide (Phosphate Buffer pH 6.8 USP, 200 ml, 30 mins): 64-67%
% release of glipizide (Phosphate Buffer pH 6.8 USP, 400 ml, 5 mins): 24-29%
% release of glipizide (Phosphate Buffer pH 6.8 USP, 400 ml, 15 mins): 64-69%
% release of glipizide (Phosphate Buffer pH 6.8 USP, 400 ml, 30 mins): 65-67%
% release of glipizide (Phosphate Buffer pH 6.8 USP, 900 ml, 5 mins): 25-28%
% release of glipizide (Phosphate Buffer pH 6.8 USP, 900 ml, 15 mins): 55-62%
% release of glipizide (Phosphate Buffer pH 6.8 USP, 900 ml, 30 mins): 65-68%
% release of glipizide (Purified water pH 7.0, 200 ml, 5 mins): 30-32%
% release of glipizide (Purified water pH 7.0, 200 ml, 15 mins): 38-40%
% release of glipizide (Purified water pH 7.0, 200 ml, 30 mins): 39-41%
% release of glipizide (Purified water pH 7.0, 400 ml, 5 mins): 32-34%
% release of glipizide (Purified water pH 7.0, 400 ml, 15 mins): 40-42%
% release of glipizide (Purified water pH 7.0, 400 ml, 30 mins): 40-44%
% release of glipizide (Purified water pH 7.0, 900 ml, 5 mins): 20-25%
% release of glipizide (Purified water pH 7.0, 900 ml, 15 mins): 30-33%
% release of glipizide (Purified water pH 7.0, 900 ml, 30 mins): 38-41%
